The source of these data is ChEMBL document CHEMBL1201862, “PubChem BioAssay data set” (2004).

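Results reflect a 48-hour exposure of cells in 96-well plates to compound at five concentrations. GI50 = concentration required for 50% inhibition of growth.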 The source made the active and inactive calls. Rule as the data show it: active = GI50 up to about 1.1 µM and inactive = higher. A value given as a limit tells only on which side of the number the result lay.

Some test systems named below: 786-0; A498; A549; ACHN; CCRF-CEM; COLO 205; HCT-15; HT-29; KM12; LOX IMVI; MCF7; MDA-MB-231; Malme-3M; OVCAR-4; SF-295; SK-MEL-2; SR; UACC-62; NCI-H226; SNB-75.
What all share (test): NCI tumour cell line growth inhibition, 48 h

Regarding `COC1=C(OC)C(=O)C(Cc2c(Cl)nc3n2CCS3)=C(C)C1=O`, the GI50 in the test on 786-0 is 18.2 µM (inactive); in the test with A498, 18.9 µM (inactive); in the test with A549 it was 15.3 µM (inactive); in the test on ACHN it was 14.8 µM (inactive); in the test on CCRF-CEM, 2.81 µM (inactive); in the test on COLO 205 it was 17.2 µM (inactive). The GI50 in the test with HCT-15 was 17.1 µM; in the test on HT-29, 17 µM (inactive); in the test with KM12 it was 14 µM (inactive); in the test with LOX IMVI, 6.35 µM (inactive); with MCF7, 12.9 µM (inactive); in the test with MDA-MB-231, 4.04 µM (inactive). Also, the GI50 is 7.83 µM (inactive) in the test on Malme-3M; 7.73 µM (inactive) with OVCAR-4; 14.8 µM (inactive) in the test on SF-295; 14.6 µM (inactive) in the test on SK-MEL-2; 7.59 µM (inactive) in the test with SR; 12.1 µM (inactive) in the test on UACC-62.

For the compound `Nc1nc(O)c2ncn(C3C=CC(CO)C3)c2n1` (centres undefined), the GI50 in the test with 786-0 was > 100 µM (inactive); in the test with A498, > 100 µM (inactive); in the test on A549, > 100 µM (inactive); in the test on ACHN, > 100 µM (inactive); in the test on COLO 205, > 100 µM (inactive); in the test with HCT-15, above 100 µM. The GI50 in the test with HT-29, with KM12, with MCF7, in the test on MDA-MB-231, in the test with Malme-3M and in the test on NCI-H226 was > 100 µM (inactive) each time. Also, the GI50 in the test with OVCAR-4, in the test on SF-295, with SK-MEL-2, in the test on SNB-75, in the test on SR and with UACC-62 was > 100 µM (inactive) in each case.

Take `Cc1ccc(C)c(COCCOCn2ccc(N)nc2=O)c1`: the GI50 was > 100 µM (inactive) in the test on 786-0; > 100 µM (inactive) with A498; > 100 µM (inactive) in the test on A549; > 100 µM (inactive) in the test on ACHN; 0.785 µM (active) in the test with CCRF-CEM; > 100 µM (inactive) in the test on COLO 205. Besides, the GI50 with HCT-15 is above 100 µM; in the test on KM12, > 100 µM (inactive); in the test with LOX IMVI it was > 100 µM (inactive); in the test on MCF7, > 100 µM (inactive); in the test with MDA-MB-231, > 100 µM (inactive); in the test with Malme-3M, > 100 µM (inactive). Further, the GI50 with NCI-H226, in the test with SF-295, with SK-MEL-2, in the test on SNB-75, in the test on SR and in the test with UACC-62 was > 100 µM (inactive) in each case.

Regarding `CC[C@H]1CN(C)[C@H]2Cc3c([nH]c4ccccc34)C(=O)C[C@H]1C2C(=O)OC` (some centres undefined), the GI50 was > 100 µM (inactive) in the test on 786-0; > 100 µM (inactive) in the test on A498; > 100 µM (inactive) in the test with A549; > 100 µM (inactive) in the test on ACHN; 97.5 µM (inactive) in the test with CCRF-CEM; > 100 µM (inactive) in the test on COLO 205. In addition, the GI50 is above 100 µM with HCT-15; > 100 µM (inactive) with HT-29; > 100 µM (inactive) in the test with KM12; > 100 µM (inactive) in the test with LOX IMVI; > 100 µM (inactive) in the test on MCF7; > 100 µM (inactive) in the test with MDA-MB-231. The GI50 in the test with Malme-3M, in the test on NCI-H226, in the test with OVCAR-4, in the test with SF-295, in the test on SK-MEL-2 and with SR was > 100 µM (inactive) each time. Also, in the test on UACC-62, the GI50 is > 100 µM (inactive).

Take `NP(=O)(Oc1c2occc2cc2ccc(=O)oc12)N(CCCl)CCCl` (centres undefined): the GI50 in the test on 786-0 was > 100 µM (inactive); in the test with A498, > 100 µM (inactive); with A549, 62.2 µM (inactive); in the test on ACHN it was 83.2 µM (inactive); with CCRF-CEM, 45.2 µM (inactive); in the test with COLO 205, > 100 µM (inactive). Besides, the GI50 in the test with HCT-15 was above 100 µM; with HT-29 it was > 100 µM (inactive); in the test on KM12, > 100 µM (inactive); with LOX IMVI it was 37.6 µM (inactive); with MCF7, 51.1 µM (inactive); with MDA-MB-231, > 100 µM (inactive). For the same compound, the GI50 with Malme-3M was > 100 µM (inactive); with NCI-H226, 74.5 µM (inactive); with OVCAR-4, > 100 µM (inactive); in the test on SF-295, > 100 µM (inactive); in the test with SK-MEL-2, > 100 µM (inactive); in the test with SR it was 38.5 µM (inactive). Moreover, the GI50 in the test on UACC-62 is > 100 µM (inactive).

With `Cc1cnc(/C=N\NC(N)=S)c2cccc(N)c12`, the GI50 in the test with A498 was 10.8 µM (inactive); in the test on A549 it was 2.58 µM (inactive); in the test on ACHN, 0.387 µM (active); with CCRF-CEM, 0.278 µM (active); in the test on COLO 205, 1.4 µM (inactive); in the test with HCT-15, 0.78 µM. Also, the GI50 in the test on HT-29 was 0.711 µM (active); in the test with KM12 it was 1.9 µM (inactive); with LOX IMVI it was 0.445 µM (active); in the test on MCF7 it was 0.526 µM (active); with MDA-MB-231 it was 1.52 µM (inactive); with Malme-3M it was 1.62 µM (inactive). The GI50 with NCI-H226 is 1.39 µM (inactive); in the test on OVCAR-4 it was 1.95 µM (inactive); with SF-295 it was 1.97 µM (inactive); in the test on SK-MEL-2, 2.1 µM (inactive); with SNB-75, 0.553 µM (active); in the test with SR, 0.314 µM (active). The GI50 in the test on UACC-62 was 0.359 µM (active).

In the case of `OC(c1nc2ccccc2[nH]1)C(O)C(O)C(O)c1nc2ccccc2[nH]1` (centres undefined), the GI50 is > 100 µM (inactive) with 786-0; > 100 µM (inactive) in the test on A498; > 100 µM (inactive) in the test with A549; > 100 µM (inactive) in the test on ACHN; > 100 µM (inactive) with COLO 205; above 100 µM in the test with HCT-15. Moreover, the GI50 with HT-29, in the test with KM12, with LOX IMVI, in the test on MCF7, with MDA-MB-231 and in the test on Malme-3M was > 100 µM (inactive) in each case. The GI50 with NCI-H226, with OVCAR-4, in the test on SF-295, in the test on SK-MEL-2, in the test on SNB-75 and in the test on SR was > 100 µM (inactive) each time. Moreover, the GI50 in the test with UACC-62 was > 100 µM (inactive).

Regarding `Cc1c(-c2ccccc2)cc(O)c2nc3ccccc3n12`, the GI50 in the test on 786-0 was 29 µM (inactive); with A498, > 100 µM (inactive); in the test with A549, 14.5 µM (inactive); in the test on ACHN it was 21.6 µM (inactive); in the test with CCRF-CEM it was 17 µM (inactive); in the test with COLO 205, > 100 µM (inactive). Besides, the GI50 in the test with HCT-15 was 6.32 µM; with HT-29, > 100 µM (inactive); in the test with KM12 it was 15.6 µM (inactive); in the test with LOX IMVI, 4.99 µM (inactive); in the test on MCF7, 57.9 µM (inactive); in the test on MDA-MB-231, 5.61 µM (inactive). Also, the GI50 was > 100 µM (inactive) in the test with Malme-3M; > 100 µM (inactive) with NCI-H226; 9.68 µM (inactive) in the test with OVCAR-4; 49.8 µM (inactive) with SF-295; 7.4 µM (inactive) in the test on SNB-75; 7.06 µM (inactive) in the test with SR. The GI50 in the test with UACC-62 is 11 µM (inactive).
